“Also recorded” adds a separate entry of the source.
Experiments:
MC4R-H158R = biological target: T1, MC4R-H158R (Homo sapiens, UniProt P32245, H158R); assay: NFAT luciferase reporter gene assay (PLC activation, Gq/11 signaling), H158R; assay type: cell-based
T1 construct: expressed in transfected cells; host or cells: HEK293

MC4R-WT = MC4R-WT (Homo sapiens, UniProt P32245); assay: NFAT luciferase reporter gene assay (PLC activation, Gq/11 signaling), MC4R-WT; conditions: MC4R-WT + PTX (50 ng/mL, 18 h before stimulation), HEK293; mean ± SEM, two to nine experiments
MC4R-WT, sequence (P32245 whole entry): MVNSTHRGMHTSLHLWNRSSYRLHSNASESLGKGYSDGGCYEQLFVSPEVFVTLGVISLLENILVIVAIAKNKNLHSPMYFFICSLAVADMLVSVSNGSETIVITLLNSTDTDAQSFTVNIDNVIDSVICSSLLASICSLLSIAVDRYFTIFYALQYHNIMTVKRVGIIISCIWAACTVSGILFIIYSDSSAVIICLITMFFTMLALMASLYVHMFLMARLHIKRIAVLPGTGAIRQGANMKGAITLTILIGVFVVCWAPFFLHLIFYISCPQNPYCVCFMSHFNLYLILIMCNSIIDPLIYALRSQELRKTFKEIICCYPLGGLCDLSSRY
Method: Cells were maintained in minimal essential medium (MEM, Gibco, Waltham, MA, USA) supplemented with 5% fetal bovine serum (FBS, Gibco, Waltham, MA, USA) and NEAA incubated at 37 °C in humidified air containing 5% CO2. […] For the NFAT luciferase-based reporter gene assay, 1.5 × 10^4 cells per well were seeded in poly-L-lysine-coated (Gibco, Waltham, MA, USA) 96-well translucent plates (Falcon, Kaiserslautern, Germany) and incubated for 24 h.
For reporter gene assays, HEK293 cells were transfected 24 h after seeding with 45 ng plasmid DNA and 0.45 µL Metafectene (Biontex, Munich, Germany), according to the manufacturer’s protocol. […]
In order to determine phospholipase C (PLC) activation, luciferase-based reporter gene assays were conducted. […] Measurements were conducted by injecting 40 µL firefly luciferase substrate (Promega, Mannheim, Germany), and luminescence was determined with a plate reader (Mithras LB940). Signaling bias was analyzed using the formula described by Kenakin [27]:(4) Δlog(Emax/EC50)=log(Emax, A/EC50,A)−log(Emax, B/EC50, B) with A referring to the respective chimeric receptor and B being the reference (MC4R-WT). Emax was determined from concentration–response curves and depicts the maximal response (efficacy); EC50 describes the potency. Bias was further calculated, creating the antilog. […]

[1] = system: receptor-receptor interaction (WT, Chim 7, H158R, CB1R); assay: Donor saturation assay (DSA, NanoBRET), specificity of receptor-receptor interaction; assay type: cell-based, human; conditions: for Bmax: DSA; for specificity of homodimer interaction: donor saturation assay, HEK293
Method: The interaction between MC4R-WT, CB1R, and the chimeric receptors was determined using NanoBRET™ (Promega, Mannheim, Germany). The receptors were either C-terminally tagged with HaloTag (HT) as an energy acceptor or C-terminally fused with NanoLuc (NL) as an energy donor. Then, 20 h after transfection, cells were detached from the wells and centrifuged at 130× g for 5 min and the pellet was resuspended in Opti-MEM (Gibco) without phenol red, supplemented with 4% FBS (Gibco). […] The cells were then reseeded into white opaque 96-well plates (Corning, Costar) and incubated for 4–6 h at 37° and 5% CO2. […] The BRET Ratio was calculated by dividing acceptor emission by donor emission. In order to correct for background bleedthrough, the background ratio (no acceptor DMSO control) was subtracted, and the unit was changed into miliBRET (mBU).
Supplements S1: Donor Saturation Assays (DSA) investigating the specificity of receptor-receptor interaction of WT, Chim7 and H158R.
Figure S1: Donor Saturation Assays (DSA) investigating the specificity of receptor-receptor interaction of WT, Chim7 and H158R. HEK293 cells were transfected with increasing amounts of acceptor while the amount of donor was held constant. A receptor interaction is called specific, if a saturation level (Bmax) can be achieved. This is represented by a […]
hyperbolic curve. […] WT-MC4R […]
served as positive control, CB1R was included as negative control as it is known not to […]
receptor interaction, represented by the black hyperbolic curve. The negative controls depict flat behavior. (B) Homodimerization of Chim 7 is depicted next to WT-MC4R homodimer formation. Interaction of Chim7 NL with CB1R HT served as negative control.
(C) Homodimerization of H158R is depicted next to positive and negative control. […] Data […]
represent three independent experiments each performed in triplicates. Values represent

[2] = system: receptor homodimer (MC4R-WT, CB1R, Chim 1-7, H158R); assay: NanoBRET receptor homodimerization (BRET ratio, ΔBRET); conditions: for Relative Dimerization Compared to WT: NanoBRET data from Figure 2 (ΔBRET = chimera minus MC4R-WT), HEK293, no agonist, three independent experiments in triplicate; for homodimerization compared to MC4R-WT: NanoBRET, HEK293, n = 3 in triplicate; for nanoBRET rations, mean: difference to WT+WT, mean of the replicates
Method: Cells were maintained in minimal essential medium (MEM, Gibco, Waltham, MA, USA) supplemented with 5% fetal bovine serum (FBS, Gibco, Waltham, MA, USA) and NEAA incubated at 37 °C in humidified air containing 5% CO2. For the BRET assays, 4 × 10^5 HEK293 cells per well were seeded in 6-well plates for transfection.
For BRET assays, HEK293 cells were transfected 4–6 h after seeding. Transfection was performed using 8 µL FuGene HD (Promega, Mannheim, Germany) and 1.4 µg DNA in Opti-MEM (Gibco, Waltham, MA, USA). […] In addition, 200 ng Carrier DNA (pGEM3Z) was added.
For graphical depiction the delta BRET was calculated (3) ΔBRET=BRETRatiochimeric receptor−BRETRatioWT−MC4R

HEK293 cells = assay: GloSensor cAMP accumulation, isoproterenol internal control in transfected cells; assay type: cell-based, human
Method: Gs signaling was measured using cAMP assay GloSensor™, enabling real-time measurements of cAMP accumulation. HEK293 cells were transfected with either MC4R-WT or chimeric receptors. […] Non-PTX-treated cells received 10 µL MEM without supplements (Gibco Minimum Essential Media, Waltham, MA, USA) per well at the same time point. Bioluminescence was quantified using a Berthold Microplate Reader (Mithras LB940, Berthold Technologies GmbH and Co., Bad Wildbad, Germany). […] Cells stimulated with 1 µM isoproterenol served as an internal control. GloSensor™ results were expressed as relative luminescence units (RLU). The total cAMP formation was assessed in the time–response curve by calculating the area under the curve (AUC).

[3] = biological target: MC4R/CB1R chimeric receptor Chim 5 (substitution of ICL2) (UniProt P32245); assay: FRET or BRET; NanoBRET in living HEK293 cells co-transfected with a NanoLuc fusion (donor; written as binder) and a HaloTag fusion (acceptor, ligand 618; written as target), NL/HT DNA ratio 1:5; BRET ratio in mBU after subtraction of the no-acceptor control; delta BRET = chimera minus MC4R-WT homodimer
[4] = system: MC4R/CB1R chimeric receptors; conditions: COS-7 cells; cited from earlier work
Method: Results were based on cAMP accumulation assays in COS-7 cells. […] Experiments were performed using GloSensor^TM assay enabling dynamic live cell measurement of cAMP increase. In order to compare the results of this study with results previously achieved in COS-7 cells, we used the same ...

T1 sequence (P32245 whole entry H158R): as the sequence (P32245 whole entry) above, with H158R counted along it

CC(=O)N[C@@H](CCCNC(=N)N)C(=O)N[C@H]1CSSC[C@@H](C(N)=O)NC(=O)[C@H](Cc2c[nH]c3ccccc23)NC(=O)[C@H](CCCNC(=N)N)NC(=O)[C@@H](Cc2ccccc2)NC(=O)[C@H](Cc2c[nH]cn2)NC(=O)[C@@H](C)NC1=O [Setmelanotide]
Emax at 1 µM (MC4R-H158R; HEK293, H158R, 6 h at 37 °C, mean ± SEM, n = 4): 135.93 ± 17.16 Fold over MC4R-WT Stimulated 1 µM
Emax (MC4R-H158R; bias Setmelanotide calculation): 135.93%
Emax at 1 µM (MC4R-WT): 70.26 ± 9.13 Fold over MC4R-WT Stimulated 1 µM

H158R: MC4R gain-of-function mutation located in ICL2 [Chim H158R]
Bmax ([1]; HEK293, run 20211107): 109.9
Bmax ([1]; HEK293, run 20211130): 119.8
Bmax ([1]; HEK293, run 20211202): 137.4
specificity of homodimer interaction [1]: shows specific homodimer formation; also recorded: specific interaction
Relative Dimerization Compared to WT [2]: −28.94
homodimerization compared to MC4R-WT [2]: significantly impaired dimerization capacities
nanoBRET rations, mean [2]: -28.94

MC4R-WT+MC4R-WT
nanoBRET rations, mean [2]: 0.000667

CC(C)NCC(O)c1ccc(O)c(O)c1 (centres unmarked) [Isop, isoproterenol]
cAMP AUC (HEK293 cells; cells transfected with Chim5, 1 µM isoproterenol, Assay 1): 1461897
cAMP AUC (HEK293 cells; cells transfected with Chim5, 1 µM isoproterenol, Assay 2): 430167
cAMP AUC (HEK293 cells; cells transfected with Chim5, 1 µM isoproterenol, Assay 3): 324823
cAMP AUC (HEK293 cells; cells transfected with Chim5, 1 µM isoproterenol, Assay 4): 256187
cAMP AUC (HEK293 cells; cells transfected with Chim6, 1 µM isoproterenol, Assay 1): 1327867
cAMP AUC (HEK293 cells; cells transfected with Chim6, 1 µM isoproterenol, Assay 2): 379487
cAMP AUC (HEK293 cells; cells transfected with Chim6, 1 µM isoproterenol, Assay 3): 230900
cAMP AUC (HEK293 cells; cells transfected with Chim6, 1 µM isoproterenol, Assay 4): 310727
cAMP AUC (HEK293 cells; cells transfected with Chim7, 1 µM isoproterenol, Assay 1): 786920
cAMP AUC (HEK293 cells; cells transfected with Chim7, 1 µM isoproterenol, Assay 2): 473207
cAMP AUC (HEK293 cells; cells transfected with Chim7, 1 µM isoproterenol, Assay 3): 236040
cAMP AUC (HEK293 cells; cells transfected with Chim7, 1 µM isoproterenol, Assay 4): 192750
cAMP AUC (HEK293 cells; cells transfected with WT, 1 µM isoproterenol, Assay 1): 803127
cAMP AUC (HEK293 cells; cells transfected with WT, 1 µM isoproterenol, Assay 2): 589360
cAMP AUC (HEK293 cells; cells transfected with WT, 1 µM isoproterenol, Assay 3): 380950
cAMP AUC (HEK293 cells; cells transfected with WT, 1 µM isoproterenol, Assay 4): 376050

MC4R/CB1R chimeric receptor Chim 5 (substitution of ICL2) (from UniProt P32245 1-332)
Relative Dimerization Compared to WT (delta BRET) [3]: -41.8

MC4R-WT: wild-type melanocortin 4 receptor
Bmax ([1]; HEK293, run 20210820): 129.2
Bmax ([1]; HEK293, run 20210901): 118.3
Bmax ([1]; HEK293, run 20210903): 124.8
Bmax ([1]; HEK293, run 20210929): 127.1
Bmax ([1]; HEK293, run 20211101): 143.5
Bmax ([1]; HEK293, run 20211107): 109
Bmax ([1]; HEK293, run 20211130): 120.4
Bmax ([1]; HEK293, run 20211202): 130.7
Bmax ([1]; HEK293, run 20211217): 122.3
specificity of homodimer interaction [1]: specific interaction
Relative Dimerization Compared to WT [2]: 0

4-Norleucine, 7-D-phenylalanine-alpha-melanocyte-stimulating hormone [NDP-alpha-MSH]
stimulated cAMP levels of chimeric receptors compared to MC4R-WT [4]: higher

B1: CB1R: cannabinoid receptor type 1, negative control (protein)
chain: MKSILDGLADTTFRTITTDLLYVGSNDIQYEDIKGDMASKLGYFPQKFPLTSFRGSPFQEKMTAGDNPQLVPADQVNITEFYNKSLSSFKENEENIQCGENFMDIECFMVLNPSQQLAIAVLSLTLGTFTVLENLLVLCVILHSRSLRCRPSYHFIGSLAVADLLGSVIFVYSFIDFHVFHRKDSRNVFLFKLGGVTASFTASVGSLFLTAIDRYISIHRPLAYKRIVTRPKAVVAFCLMWTIAIVIAVLPLLGWNCEKLQSVCSDIFPHIDETYLMFWIGVTSVLLLFIVYAYMYILWKAHSHAVRMIQRGTQKSIIIHTSEDGKVQVTRPDQARMDIRLAKTLVLILVVLIICWGPLLAIMVYDVFGKMNKLIKTVFAFCSMLCLLNSTVNPIIYALRSKDLRHAFRSMFPSCEGTAQPLDNSMGDSDCLHKHANNAASVHRAAESCIKSTVKIAKVTMSVSTDTSAEAL
modifications: left off: NanoLuc, C-terminal, kept | HaloTag, C-terminal, kept
homodimerization compared to MC4R-WT [2]: decreased

From article PMC9405727, “A Setmelanotide-like Effect at MC4R Is Achieved by MC4R Dimer Separation” (Biomolecules, 2022)
